# Patent US20090131527A1, “NOVEL ANTHRANILIC ACID DERIVATIVES AND CHLORIDE CHANNEL BLOCKING AGENT CONTAINING THE SAME” (Korea Institute of Science and Technology, priority 2007, published 2009)
# Molecular target: Cl− channel activated by Ca2+ (calcium ion-activated chloride channels) (Xenopus laevis, UniProt B5SVV6)
# Experiment: Two-electrode voltage clamp recording of Ca2+-activated chloride current in Xenopus Laevis eggs (ionomycin/thapsigargin treated)
# Type: cell-based
# Details: for IC50: calcium ion-activated chloride channel current in Xenopus Laevis eggs, activated with 5 mM Ca2+, 15 s pretreatment with chemical; for inhibitory activity of calcium activated chloride channel current (in words): compared to the conventional anthranilic acid derivatives flufenamic acid and mefenamic acid / known inhibitors
# Experimental: The prepared eggs were treated with 10 μM ionomycin (Sigma) for 30 min.
# An intracellular solution was prepared by adding 0.5 mM EGTA and 1 μM Chelerythrine (Sigma) into a 1 M KCl solution, which was filled in glass microelectrodes. One of the above prepared eggs was placed on the chamber and two electrodes were inserted into opposite sides of the egg while the recording solution was poured. Current was measured by performing two-electrode voltage clamp recording according to a protocol suitable for the purpose of the experiment.
# In order to activate a Ca^2+-dependent chloride channel, 5 mM Ca^2+ was treated first to the above eggs for 5 seconds. After being washed with the above recording solution for 50 seconds, and pretreated with the chemicals in the below Table 1 (treated in the order of […]) for 15 seconds, the eggs were treated with 5 mM Ca^2+ and the above chemicals (same amount as above) to measure the inhibitory concentrations of each chemical by comparing the current measured with 5 mM Ca^2+.
# Cl− channel activated by Ca2+ (calcium ion-activated chloride channels), sequence (B5SVV6 entry or part of it): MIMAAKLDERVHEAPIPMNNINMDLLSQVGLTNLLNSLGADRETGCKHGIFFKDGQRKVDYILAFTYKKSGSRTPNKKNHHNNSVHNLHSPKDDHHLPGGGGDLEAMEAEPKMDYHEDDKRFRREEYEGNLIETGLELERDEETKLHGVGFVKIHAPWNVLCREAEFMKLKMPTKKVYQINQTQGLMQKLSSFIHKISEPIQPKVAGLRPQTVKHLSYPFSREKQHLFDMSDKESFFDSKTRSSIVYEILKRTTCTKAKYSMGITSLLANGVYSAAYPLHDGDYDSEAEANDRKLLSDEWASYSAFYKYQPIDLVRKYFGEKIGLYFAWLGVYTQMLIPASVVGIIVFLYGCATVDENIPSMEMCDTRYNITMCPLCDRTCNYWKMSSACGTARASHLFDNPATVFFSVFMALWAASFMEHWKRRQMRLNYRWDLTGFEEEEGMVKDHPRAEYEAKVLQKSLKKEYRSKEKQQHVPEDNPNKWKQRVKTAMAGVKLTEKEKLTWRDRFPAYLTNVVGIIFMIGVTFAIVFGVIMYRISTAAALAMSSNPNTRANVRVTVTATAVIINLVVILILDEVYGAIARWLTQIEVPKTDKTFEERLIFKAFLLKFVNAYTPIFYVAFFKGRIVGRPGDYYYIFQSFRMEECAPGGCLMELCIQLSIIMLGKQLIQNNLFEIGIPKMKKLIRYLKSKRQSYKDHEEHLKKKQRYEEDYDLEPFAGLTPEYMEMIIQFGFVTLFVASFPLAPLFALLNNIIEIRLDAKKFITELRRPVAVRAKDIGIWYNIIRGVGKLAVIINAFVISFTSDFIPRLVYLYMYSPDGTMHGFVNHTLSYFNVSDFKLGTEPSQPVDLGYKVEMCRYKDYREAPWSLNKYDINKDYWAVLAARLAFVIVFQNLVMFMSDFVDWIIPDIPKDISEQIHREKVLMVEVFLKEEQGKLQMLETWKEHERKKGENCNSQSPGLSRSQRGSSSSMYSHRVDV
SMILES,IC50 [µM],inhibitory activity of calcium activated chloride channel current (in words)
O=C(O)c1cc([N+](=O)[O-])ccc1Nc1ccc([N+](=O)[O-])cc1 [5-Nitro-N-(4-nitrophenyl)anthranilic acid],15.4,notably high inhibitory activity
"O=C(O)c1c2ccccc2cc2ccccc12 [9-AC, 9-anthracene carboxylic acid, reference compound]",94.3,–
"O=S(=O)(O)c1cc(N=C=S)ccc1C=Cc1ccc(N=C=S)cc1S(=O)(=O)O [DIDS, disodium 4,4′-diisothiocyano-2,2′-stilbenedisulphonic acid, reference compound]",10.7,–
"O=C(O)c1ccccc1Nc1cccc(C(F)(F)F)c1 [Flufenamic acid, reference compound]",35.4,–
"Cc1cccc(Nc2ccccc2C(=O)O)c1C [Mefenamic acid, reference compound]",44.5,–
O=C(O)c1ccccc1Nc1ccccc1C(F)(F)F [N-(2-Trifluoromethylphenyl)anthranilic acid],29.5,notably high inhibitory activity
O=C(O)c1ccccc1Nc1cccc([N+](=O)[O-])c1 [N-(3-Nitrophenyl)anthranilic acid],32.1,notably high inhibitory activity
O=C(O)c1ccccc1Nc1ccc(Cl)cc1 [N-(4-Chlorophenyl)anthranilic acid],11.3,notably high inhibitory activity
O=C(O)c1ccccc1Nc1ccc(F)c(C(F)(F)F)c1 [N-(4-Fluoro-3-trifluoromethylphenyl)anthranilic acid],14.7,notably high inhibitory activity
O=C(O)c1ccccc1Nc1ccc(F)cc1 [N-(4-Fluorophenyl)anthranilic acid],63.1,–
CC(C)c1ccc(Nc2ccccc2C(=O)O)cc1 [N-(4-Isopropylphenyl)anthranilic acid],17,–
COc1ccc(Nc2ccccc2C(=O)O)cc1 [N-(4-Methoxyphenyl)anthranilic acid],102,–
Cc1ccc(Nc2ccccc2C(=O)O)cc1 [N-(4-Methylphenyl)anthranilic acid],55.3,–
O=C(O)c1ccccc1Nc1ccc([N+](=O)[O-])cc1 [N-(4-Nitrophenyl)anthranilic acid],17.8,notably high inhibitory activity
O=C(O)c1ccccc1Nc1ccc(C(F)(F)F)cc1 [N-(4-Trifluoromethylphenyl)anthranilic acid],6,notably high inhibitory activity
CC(C)(C)c1ccc(Nc2ccccc2C(=O)O)cc1 [N-(4-tert-Butylphenyl)anthranilic acid],22.9,notably high inhibitory activity
"O=C(O)c1ccccc1Nc1ccccc1 [N-Phenylanthranilic acid, reference compound]",88.1,–
"O=C(O)c1cc([N+](=O)[O-])ccc1NCCCc1ccccc1 [NPPB, 5-nitro-2-(3-phenylpropylamino)benzoic acid, reference compound]",32.3,–
"O=C(O)c1cccnc1Nc1cccc(C(F)(F)F)c1 [Niflumic acid, reference compound]",37.3,–
